Results: PubChem BioAssay AID328 (DTP/NCI, 2004)
Where “and” joins values, the source holds several entries; their conditions need not be identical. Equal entries are not always repeated. Inconclusive results and toxic doses are left out. How the source made its calls: active means survival T/C of 150% or more; inactive means T/C below 125% in these data.

System: BDF1 mice, P388 leukemia ip, median survival T/C
Experiment: NCI In Vivo Anticancer Drug Screen. Data for tumor model P388 Leukemia (intraperitoneal) in B6D2F1 (BDF1) mice
Settings: endpoint: median survival time, higher = longer survival
Outline: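 In tumour-bearing mice, survival after compound treatment is set against the vehicle group and given as a quotient.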

[1] = dose: 1.3 mg/kg/injection, schedule: Q01DX009 (ip), vehicle: saline
[2] = dose: 2.0 mg/kg/injection, schedule: Q01DX009 (ip), vehicle: saline
[3] = dose: 50.0 mg/kg/injection, schedule: Q01DX009 (ip), vehicle: saline with Tween-80
[4] = dose: 100.0 mg/kg/injection, schedule: Q04DX003 (ip), vehicle: saline
[5] = dose: 400.0 mg/kg/injection, schedule: Q04DX003 (ip), vehicle: saline with Tween-80
[6] = dose: 400.0 mg/kg/injection, schedule: Q01DX009 (ip), vehicle: saline with Tween-80
[7] = dose: 50.0 mg/kg/injection, schedule: Q01DX009 (ip), vehicle: Klucel (hydroxypropylcellulose) (HPC)
[8] = dose: 100.0 mg/kg/injection, schedule: Q04DX003 (ip), vehicle: saline with Tween-80
[9] = dose: 200.0 mg/kg/injection, schedule: Q04DX003 (ip), vehicle: saline with Tween-80
[10] = dose: 100.0 mg/kg/injection, schedule: Q01DX009 (ip), vehicle: saline with Tween-80
[11] = dose: 200.0 mg/kg/injection, schedule: Q01DX009 (ip), vehicle: saline with Tween-80

Measured: T/C

CC(=O)n1cc(F)c(=O)[nH]c1=O
active: [2] 165 % of control | dose: 3.12 mg/kg/injection, schedule: Q01DX009 (ip), vehicle: saline with Tween-80 150 % of control | dose: 6.25 mg/kg/injection, schedule: Q01DX009 (ip), vehicle: saline with Tween-80 160 % of control and 165 % of control | dose: 7.2 mg/kg/injection, schedule: Q01DX009 (ip), vehicle: saline with Tween-80 166 % of control | dose: 12.5 mg/kg/injection, schedule: Q01DX009 (ip), vehicle: saline with Tween-80 178 % of control and 215 % of control | dose: 25.0 mg/kg/injection, schedule: Q01DX009 (ip), vehicle: saline with Tween-80 235 % of control and 195 % of control | dose: 50.0 mg/kg/injection, schedule: Q04DX003 (ip), vehicle: saline with Tween-80 155 % of control | dose: 50.0 mg/kg/injection, schedule: Q04DX003 (ip), vehicle: saline 150 % of control | [4] 181 % of control
inactive: dose: 0.57 mg/kg/injection, schedule: Q01DX009 (ip), vehicle: saline 116 % of control | dose: 0.99 mg/kg/injection, schedule: Q01DX009 (ip), vehicle: saline 113 % of control | [1] 122 % of control | dose: 5.0 mg/kg/injection, schedule: Q04DX003 (ip), vehicle: saline 122 % of control | dose: 25.0 mg/kg/injection, schedule: Q04DX003 (ip), vehicle: saline 122 % of control | [3] 86 % of control | dose: 100.0 mg/kg/injection, schedule: Q04DX003 (ip), vehicle: other 108 % of control | dose: 150.0 mg/kg/injection, schedule: Q04DX003 (ip), vehicle: other 100 % of control | [5] 90 % of control

C[C@]12CC[C@H]3C(=CCc4cc(O)ccc43)[C@@H]1C/C(=N\O)C2=O
inactive: dose: 100.0 mg/kg/injection, schedule: Q01DX009 (ip), vehicle: saline 90 % of control | dose: 100.0 mg/kg/injection, schedule: Q04DX003 (ip), vehicle: Klucel (hydroxypropylcellulose) (HPC) 104 % of control | dose: 200.0 mg/kg/injection, schedule: Q01DX009 (ip), vehicle: saline 100 % of control | dose: 200.0 mg/kg/injection, schedule: Q04DX003 (ip), vehicle: Klucel (hydroxypropylcellulose) (HPC) 95 % of control | dose: 264.0 mg/kg/injection, schedule: Q01DX009 (ip), vehicle: saline with Tween-80 109 % of control | [6] 104 % of control | dose: 400.0 mg/kg/injection, schedule: Q01DX009 (ip), vehicle: saline 95 % of control | dose: 400.0 mg/kg/injection, schedule: Q04DX003 (ip), vehicle: Klucel (hydroxypropylcellulose) (HPC) 90 % of control | dose: 600.0 mg/kg/injection, schedule: Q01DX009 (ip), vehicle: saline with Tween-80 109 % of control

CC(=O)OCc1c(COC(C)=O)c(-c2ccc(Cl)cc2)n2c1CCC2
inactive: dose: 12.5 mg/kg/injection, schedule: Q01DX009 (ip), vehicle: Klucel (hydroxypropylcellulose) (HPC) 119 % of control | dose: 25.0 mg/kg/injection, schedule: Q01DX009 (ip), vehicle: Klucel (hydroxypropylcellulose) (HPC) 123 % of control | [7] 98 % of control

CC1(C#N)CCC2c3ccccc3CCC2C1=O (stereo unspecified)
inactive: [4] 100 % of control | dose: 200.0 mg/kg/injection, schedule: Q04DX003 (ip), vehicle: saline 100 % of control | dose: 400.0 mg/kg/injection, schedule: Q04DX003 (ip), vehicle: saline 100 % of control

CC(C)(C)c1ccc(OCCCOc2ccc(C(=O)O)cc2)cc1
inactive: dose: 12.5 mg/kg/injection, schedule: Q04DX003 (ip), vehicle: saline sonified 95 % of control | dose: 25.0 mg/kg/injection, schedule: Q04DX003 (ip), vehicle: saline sonified 95 % of control | dose: 50.0 mg/kg/injection, schedule: Q04DX003 (ip), vehicle: saline sonified 91 % of control

CS(=O)(=O)OCCN(CCOS(C)(=O)=O)c1ccc(/C=N/Nc2ncnc3nc[nH]c23)cc1
inactive: dose: 3.13 mg/kg/injection, schedule: Q04DX003 (ip), vehicle: saline with Tween-80 120 % of control
active: dose: 66.0 mg/kg/injection, schedule: Q04DX003 (ip), vehicle: saline with Tween-80 156 % of control | [8] 168 % of control and 182 % of control | dose: 150.0 mg/kg/injection, schedule: Q04DX003 (ip), vehicle: saline with Tween-80 165 % of control | [9] 159 % of control

CC(C)(O)c1cccc(F)c1
inactive: [3] 100 % of control | [10] 104 % of control | [11] 109 % of control

O=C1c2cc(Cl)ccc2-c2c(NC(=O)C(Cl)Cl)cc(Cl)cc21
inactive: [8] 104 % of control | [9] 113 % of control | [5] 104 % of control

OC(c1ccccc1)c1ccccc1CN1CCCNC1=S (stereo unspecified)
inactive: [3] 95 % of control | [10] 103 % of control | [11] 94 % of control

Cc1ccc(C(=O)/C=C/c2ccccc2O)cc1
inactive: [7] 99 % of control | dose: 100.0 mg/kg/injection, schedule: Q01DX009 (ip), vehicle: Klucel (hydroxypropylcellulose) (HPC) 109 % of control | dose: 200.0 mg/kg/injection, schedule: Q01DX009 (ip), vehicle: Klucel (hydroxypropylcellulose) (HPC) 107 % of control | dose: 400.0 mg/kg/injection, schedule: Q01DX009 (ip), vehicle: Klucel (hydroxypropylcellulose) (HPC) 101 % of control

OCC1OC(n2cnc3c2NC=NC[C@H]3O)CC1O (stereo partly specified)
inactive: dose: 0.25 mg/kg/injection, schedule: Q01DX005 (ip), vehicle: water 102 % of control | dose: 0.25 mg/kg/injection, schedule: Q01DX009 (ip), vehicle: water 105 % of control | dose: 0.25 mg/kg/injection, schedule: Q04DX002 (ip), vehicle: saline 102 % of control | dose: 0.25 mg/kg/injection, schedule: Q04DX003 (ip), vehicle: saline 100 % of control | dose: 0.5 mg/kg/injection, schedule: Q01DX005 (ip), vehicle: water 109 % of control | dose: 0.5 mg/kg/injection, schedule: Q01DX009 (ip), vehicle: water 102 % of control | dose: 0.5 mg/kg/injection, schedule: Q04DX002 (ip), vehicle: saline 101 % of control | dose: 0.5 mg/kg/injection, schedule: Q04DX003 (ip), vehicle: saline 99 % of control | dose: 0.8 mg/kg/injection, schedule: Q01DX009 (ip), vehicle: saline 94 % of control | dose: 1.0 mg/kg/injection, schedule: Q01DX009 (ip), vehicle: saline 99 % of control | [1] 92 % of control | dose: 1.5 mg/kg/injection, schedule: Q01DX009 (ip), vehicle: saline 96 % of control | dose: 2.0 mg/kg/injection, schedule: Q01DX001 (ip), vehicle: saline 108 % of control | [2] 92 % of control | dose: 2.25 mg/kg/injection, schedule: Q01DX009 (ip), vehicle: saline 99 % of control | dose: 3.0 mg/kg/injection, schedule: Q01DX009 (ip), vehicle: saline 100 % of control | dose: 4.0 mg/kg/injection, schedule: Q01DX001 (ip), vehicle: saline 100 % of control

CCCCCCCCCCCSCCCCCCCCCCC
inactive: [10] 100 % of control | [11] 100 % of control | [6] 100 % of control

CC(=O)c1c(-c2ccccc2)noc1C
inactive: [8] 98 % of control | [9] 90 % of control | [5] 100 % of control

NNc1cccc(C(F)(F)F)c1
inactive: dose: 12.5 mg/kg/injection, schedule: Q01DX009 (ip), vehicle: saline 106 % of control | dose: 25.0 mg/kg/injection, schedule: Q01DX009 (ip), vehicle: saline 104 % of control | dose: 50.0 mg/kg/injection, schedule: Q01DX009 (ip), vehicle: saline 117 % of control

COC(=O)C(N)CN (stereo unspecified)
inactive: dose: 175.0 mg/kg/injection, schedule: Q01DX009 (ip), vehicle: saline with Tween-80 89 % of control
